“And” between values parts separate entries of the source, which are not always exact repeats. Equal values may be shown once.
Tests used:
[1] = tested on: mouse models of AD; conditions: cited from earlier work
[2] = tested on: SNAP25 expression; assay: CMAP (Connectivity Map) expression profiles of cultured cells treated with compounds, searched for increased SNAP25 expression (single-sample Wilcox test); assay type: cell-based
Text: The CMAP dataset is a large collection of microarray-based transcriptional signatures that includes over 7,000 expression profiles from cultured cells treated with 1,309 compounds. The full CMAP (builds 01 and 02) datasets were obtained from the Broad Institute. […] The output p-values were adjusted for multiple hypothesis testing (FDR p value <0.05).

[3] = tested on: NEUROD6 expression; assay: CMAP (Connectivity Map) expression profiles of cultured cells treated with compounds, searched for increased NEUROD6 expression (single-sample Wilcox test); assay type: cell-based; conditions: for p.val (compounds identified to upregulate enriched NEUROD6 expression): single-sample Wilcox test on CMAP expression profiles, cultured cells after treatment
Text: The full CMAP (builds 01 and 02) datasets were obtained from the Broad Institute. […] The output p-values were adjusted for multiple hypothesis testing (FDR p value <0.05).

[4] = tested on: female mouse model of AD; conditions: cited from earlier work
[5] = tested on: mouse model of AD; conditions: cited from earlier work

CCCC(CCC)C(=O)O [valproic acid]
Aβ production [1]: limit Aβ production
behavioral deficits [1]: limit Aβ production and behavioral deficits
loss of neurons [1]: protect against loss of neurons
effect on SNAP25 expression ([2]; CMAP analysis, in words): significantly elevate SNAP25 expression

O=c1c(-c2ccc(O)cc2)coc2cc(O)cc(O)c12 [genistein]
effect on NEUROD6 expression ([3]; CMAP analysis, in words): significantly elevate expression of NEUROD6

CN(C(=O)C(Cl)Cl)c1ccc(O)cc1 [diloxanide]
p.val (compounds identified to upregulate enriched SNAP25 expression) ([2]; single-sample Wilcox test on CMAP expression profiles, cultured cells after treatment): 1.28E−04

O=CC[C@@H](O)[C@H](O)[C@H](O)CO [2-deoxy-D-glucose]
pathology [4]: reduce pathology

C[C@@H]1C[C@H]2O[C@@H]2/C=C\C=C\C(=O)Cc2c(Cl)c(O)cc(O)c2C(=O)O1 [monorden]
p.val (compounds identified to upregulate enriched NEUROD6 expression) [3]: 2.17E−04 and 2.82E−04

CCN1C[C@]2(C)CC[C@H](O)[C@]34C1[C@@H](C[C@H]23)[C@@]1(O)C[C@H](OC)[C@H]2C[C@@H]4[C@@H]1[C@H]2O [karakoline]
cognitive function [5]: improve cognitive function

CC(C)c1ccc2c(c1)c(SC(C)(C)C)c(CC(C)(C)C(=O)O)n2Cc1ccc(Cl)cc1 [MK-886]
p.val (compounds identified to upregulate enriched NEUROD6 expression) [3]: 2.46E−04

C=C1C[C@@H](O)[C@H](/C=C/[C@@H](O)C(C)(C)CCCC)[C@H]1C/C=C\CCCC(=O)O [meteneprost]
p.val (compounds identified to upregulate enriched NEUROD6 expression) [3]: 2.05E−04
